Assay results from ChEMBL document CHEMBL5518186, “Discovery of the cereblon-recruiting tubulin PROTACs effective in overcoming Taxol resistance in vitro and in vivo” (Eur J Med Chem, 2024).
pIC50: −log10 of the molar value. Activity calls are given as the source filed them. The calls are words filed in the database; no cut-off is given here.

Legend:
[1] = target: T1, Protein cereblon-alpha tubulin (Homo sapiens) (UniProt P0DPH7+P68366+Q71U36+P68363+Q9BQE3+Q6PEY2+A6NHL2+Q9NY65+Q96SW2); experiment: Protac activity at CRBN/alpha-tubulin in human HeLa cells assessed as reduction in alpha-tubulin level at 10 to 1000 nM incubated for 48 hrs by immunoblotting analysis; assay type: cell-based; details: dose 10-1000 nM
HepG2 [2] = experiment: Induction of DNA damage in human HepG2 cells assessed as gamma-H2AX level; assay type: functional, cell-based
MGC-803 = experiment: Antiproliferative activity against human MGC-803 cells incubated for 72 hrs; assay type: functional, cell-based; details: MGC-803, 72 h
[3] = Inhibition of cell growth in human MCF7/Taxol cells incubated for 72 hrs by SRB method; assay type: functional, cell-based
[4] = target: T2, Protein cereblon/Tubulin beta (Homo sapiens) (UniProt P68371+Q9H4B7+Q13509+P04350+Q3ZCM7+P07437+Q13885+Q9BVA1+Q9BUF5+Q96SW2+A6NNZ2); experiment: Protac activity at CRBN/beta-tubulin in human MGC-803 cells assessed as reduction in beta-tubulin level at 10 to 1000 nM incubated for 48 hrs by immunoblotting analysis; assay type: cell-based; details: dose 10-1000 nM
[5] = target: T1, Protein cereblon-alpha tubulin (Homo sapiens); experiment: Protac activity at CRBN/alpha-tubulin in human A549 cells assessed as reduction in alpha-tubulin level at 0.25 uM pretreated with CA-4 for 2 hrs followed by compound addition and measured after 24 hrs by immunoblotting analysis; assay type: cell-based
HUVEC [6] = experiment: Antiangiogenic activity in HUVECs assessed as reduction in cord formation at 2.5 nM incubated for 6 to 8 hrs by inverted microscopic analysis; assay type: functional, cell-based; details: Homo sapiens, time 6-8 hrs
A549/TR [7] = experiment: Induction of cell cycle arrest in human A549/Taxol cells assessed as accumulation of cells at G2/M phase at 0.002 uM incubated for 24 hrs by PI staining based flow cytometry analysis (reference value: 17.02%); assay type: functional
A549 [8] = experiment: Antitumor activity against human A549 cells xenografted in nude mouse assessed as tumor growth inhibition at 15 mg/kg, […] administered once every 2 days for 23 days by Vernier caliper method; assay type: functional; details: A549, 552 h, time 23 day, read-out: TGI
HeLa = experiment: Antiproliferative activity against human HeLa cells incubated for 72 hrs; assay type: functional, cell-based
[9] = Toxicity in nude mouse xenografted with human A549 cells assessed as body weight loss at 15 mg/kg, ip administered once every 2 days for 23 days and measured every 3 days; assay type: organism-based; details: in vivo, 552 h, time 23 day
HepG2 [10] = experiment: Induction of cell cycle arrest in human HepG2 cells assessed as G2/M phase arrest; assay type: functional, cell-based
[11] = target: T3, Protein cereblon/Tubulin beta-3 chain (Homo sapiens, UniProt Q13509+Q96SW2); experiment: Protac activity at CRBN/beta3-tubulin in human HeLa cells assessed as reduction in beta3-tubulin level at 10 to 1000 nM incubated for 48 hrs by immunoblotting analysis; assay type: cell-based; details: dose 10-1000 nM
T3 sequence (Q13509 whole entry, looked up): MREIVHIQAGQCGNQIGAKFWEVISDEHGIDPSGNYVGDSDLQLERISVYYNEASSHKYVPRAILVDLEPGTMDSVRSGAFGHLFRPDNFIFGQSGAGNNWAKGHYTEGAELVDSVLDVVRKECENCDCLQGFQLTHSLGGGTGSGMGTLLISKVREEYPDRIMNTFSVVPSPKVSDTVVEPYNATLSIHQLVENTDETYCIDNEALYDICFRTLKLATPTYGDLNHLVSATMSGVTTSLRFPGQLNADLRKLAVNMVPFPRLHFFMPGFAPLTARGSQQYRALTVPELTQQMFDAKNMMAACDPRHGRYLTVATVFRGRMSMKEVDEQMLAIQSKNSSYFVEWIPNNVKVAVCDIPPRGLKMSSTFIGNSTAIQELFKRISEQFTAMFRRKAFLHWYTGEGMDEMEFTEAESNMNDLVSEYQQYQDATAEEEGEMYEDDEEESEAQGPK
T3 sequence (Q96SW2 whole entry, looked up): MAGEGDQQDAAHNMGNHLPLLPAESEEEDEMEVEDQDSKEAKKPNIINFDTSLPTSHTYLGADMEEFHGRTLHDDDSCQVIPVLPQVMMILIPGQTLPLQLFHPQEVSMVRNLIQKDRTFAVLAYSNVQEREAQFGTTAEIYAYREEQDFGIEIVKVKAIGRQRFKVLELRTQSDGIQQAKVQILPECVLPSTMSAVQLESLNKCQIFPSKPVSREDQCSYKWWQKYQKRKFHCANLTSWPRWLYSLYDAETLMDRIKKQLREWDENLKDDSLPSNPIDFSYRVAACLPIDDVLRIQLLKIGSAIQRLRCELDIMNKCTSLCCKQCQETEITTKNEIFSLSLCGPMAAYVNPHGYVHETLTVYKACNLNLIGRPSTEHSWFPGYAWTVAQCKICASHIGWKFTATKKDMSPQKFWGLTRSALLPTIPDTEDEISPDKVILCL

[12] = target: T1, Protein cereblon-alpha tubulin (Homo sapiens); experiment: Protac activity at CRBN/alpha-tubulin in human HepG2 cells assessed as reduction in alpha-tubulin level at 10 to 1000 nM incubated for 48 hrs by immunoblotting analysis; assay type: cell-based; details: dose 10-1000 nM
A549 [13] = experiment: Antitumor activity against human A549 cells xenografted in nude mouse assessed as decrease in tumor volume at 15 mg/kg, ip administered once every 2 days for 23 days by Vernier caliper method; assay type: functional, organism-based; details: time 23.0 day
A549 [14] = experiment: Induction of cell cycle arrest in human A549 cells assessed as accumulation of cells at G0/G1 phase at 0.002 uM incubated for 24 hrs by PI staining based flow cytometry analysis (reference value: 66.75%); assay type: functional
A549 [15] = experiment: Induction of cell cycle arrest in human A549 cells assessed as accumulation of cells at G2/M phase at 0.002 uM incubated for 24 hrs by PI staining based flow cytometry analysis (reference value: 31.86%); assay type: functional
HUVEC [16] = experiment: Antiangiogenic activity in HUVECs assessed as reduction in tube length at 2.5 nM incubated for 6 to 8 hrs by inverted microscopic analysis; assay type: functional, cell-based; details: Homo sapiens, time 6-8 hrs
[17] = target: T2, Protein cereblon/Tubulin beta (Homo sapiens); experiment: Protac activity at CRBN/beta-tubulin in human A549/Taxol cells assessed as reduction in beta-tubulin level at 0.25 uM pretreated with CA-4 for 2 hrs followed by compound addition and measured after 48 hrs by immunoblotting analysis; assay type: cell-based
A549 [18] = experiment: Inhibition of colony formation in human A549 cells incubated for 24 hrs followed by media replacement at every 3 days for 14 days by crystal violet staining based assay; assay type: functional, cell-based; details: dose 2-50 nM, time 14.0 day
[19] = target: T2, Protein cereblon/Tubulin beta (Homo sapiens); experiment: Protac activity at CRBN/beta-tubulin in human A549 cells assessed as reduction in beta-tubulin level at 0.25 uM after 48 hrs by immunoblotting analysis; assay type: cell-based; design: scale not given: the % may be the effect or the level left
MCF7 = experiment: Antiproliferative activity against human MCF7 cells incubated for 72 hrs; assay type: functional, cell-based; details: MCF7, 72 h
[20] = target: T1, Protein cereblon-alpha tubulin (Homo sapiens); experiment: Protac activity at CRBN/alpha-tubulin in human A549 cells assessed as reduction in alpha-tubulin level at 0.25 uM after 72 hrs by immunoblotting analysis; assay type: cell-based; design: scale not given: the % may be the effect or the level left
[21] = target: T2, Protein cereblon/Tubulin beta (Homo sapiens); experiment: Protac activity at CRBN/beta-tubulin in human A549 cells assessed as reduction in beta-tubulin level at 0.01 to 1 uM incubated for 48 hrs by immunoblotting analysis; assay type: cell-based; details: dose 0.01-1 µM
A549/TR [22] = experiment: Induction of cell cycle arrest in human A549/Taxol cells assessed as accumulation of cells at G2/M phase at 0.01 uM incubated for 24 hrs by PI staining based flow cytometry analysis (reference value: 17.02%); assay type: functional
[23] = target: T1, Protein cereblon-alpha tubulin (Homo sapiens); experiment: (§1) Protac activity at CRBN/alpha-tubulin in human A549 cells assessed as reduction in alpha-tubulin level incubated for 48 hrs by immunoblotting analysis; assay type: cell-based
[24] = target: Protein cereblon-alpha tubulin; experiment: as §1; assay type: cell-based
[25] = Resistance index, ratio of IC50 for human A549/Taxol cells to IC50 for human A549 cells; assay type: functional
[26] = Toxicity in nude mouse xenografted with human A549/Taxol cells assessed as body weight loss at 15 mg/kg, ip administered once every 2 days for 23 days and measured every 3 days; assay type: organism-based, A549/TR; details: in vivo, 552 h, time 23 day
[27] = target: T2, Protein cereblon/Tubulin beta (Homo sapiens); experiment: (§2) Protac activity at CRBN/beta-tubulin in human A549/Taxol cells assessed as reduction in beta-tubulin level incubated for 48 hrs by immunoblotting analysis; assay type: cell-based
[28] = target: Protein cereblon/Tubulin beta; experiment: as §2; assay type: cell-based
[29] = target: T2, Protein cereblon/Tubulin beta (Homo sapiens); experiment: Protac activity at CRBN/beta-tubulin in human A549 cells assessed as reduction in beta-tubulin level at 0.25 uM pretreated for 48 hrs followed by compound washout and measured upto 12 hrs by immunoblotting analysis; assay type: cell-based
[30] = target: T1, Protein cereblon-alpha tubulin (Homo sapiens); experiment: Protac activity at CRBN/alpha-tubulin in human A549 cells assessed as reduction in alpha-tubulin level at 0.01 to 1 uM incubated for 48 hrs by immunoblotting analysis; assay type: cell-based; details: dose 0.01-1 µM
A549/TR [31] = experiment: Induction of apoptosis in human A549/Taxol cells at 0.05 uM incubated for 48 hrs by Annexin V-FITC/PI staining based flow cytometry analysis; assay type: functional
[32] = target: T3, Protein cereblon/Tubulin beta-3 chain; experiment: Protac activity at CRBN/beta3-tubulin in human A549 cells assessed as reduction in beta3-tubulin level at 0.25 uM pretreated with CA-4 for 2 hrs followed by compound addition and measured after 24 hrs by immunoblotting analysis; assay type: cell-based
[33] = target: T2, Protein cereblon/Tubulin beta (Homo sapiens); experiment: (§3) Protac activity at CRBN/beta-tubulin in human A549 cells assessed as reduction in beta-tubulin level incubated for 48 hrs by immunoblotting analysis; assay type: cell-based
[34] = target: Protein cereblon/Tubulin beta; experiment: as §3; assay type: cell-based

- Activity [1]: Active
- pIC50 (MGC-803): 8.10
- Activity [4]: Active
- Activity [5]: inactive
- pIC50 (HeLa): 7.68
- Activity [11]: Active
- Activity [12]: Active
- Activity [17]: inactive
- Activity [19]: 31.1%
- pIC50 (MCF7): 7.92
- Activity [20]: 43.7%
- Activity [21]: Active
- Activity [23]: Dose-Dependent Effect
- DC50 [24]: 296 nM
- Activity [27]: Dose-Dependent Effect
- DC50 [28]: 972 nM
- Activity [29]: Active
- Activity [30]: Active
- Activity [32]: inactive
- Activity [33]: Dose-Dependent Effect
- DC50 [34]: 856 nM
SMILES: COc1ccc(/C=C\c2cc(OC)c(OC)c(OC)c2)cc1OC(=O)CCCNc1cccc2c1C(=O)N(C1CCC(=O)NC1=O)C2=O (configuration not stated)
- Activity (HepG2 [2]): Active
- pIC50 [3]: 8.22
- Activity (HUVEC [6]): Active
- Activity (A549/TR [7]): 23.69%
- inhibition in vivo at 15 mg/kg (A549 [8]): 34.1%
- Activity [9]: Non-Toxic
- Activity (HepG2 [10]): Active
- Activity (A549 [13]): Active
- Activity (A549 [14]): 57.32%
- Activity (A549 [15]): 37.03%
- Activity (HUVEC [16]): Active
- inhibition (A549 [18]): Dose-Dependent Effect
- Activity (A549/TR [22]): 63.83%
- Ratio IC50 [25]: 0.5
- Activity [26]: Non-Toxic
- Activity (A549/TR [31]): 36.2%
